Experimental data as given in patent US11089783B2, “2-(het)aryl-substituted fused heterocycle derivatives as pesticides” (Bayer Aktiengesellschaft, priority 2017, dated 2021).

How the values were obtained:
Type in all cases: in vivo
Meloidogyne incognita = Meloidogyne incognita test (MELGIN); details: Meloidogyne incognita, 336 h, 14 days (14 dat), read-out: efficacy (nematicidal, gall formation)
How it was run: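 Sand with lettuce seeds, M. incognita egg/larvae suspension and aqueous dilution of compound concentrate. Nematicidal efficacy scored from gall (root-knot) formation after 14 days or the desired time, as % relative to untreated control (100% = no galls; 0% = as control).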

Myzus persicae = Myzus persicae oral test; details: 120 h, after 5 days, read-out: efficacy
How it was run: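 Compound solution in IPL41 insect medium with sugar was sealed under parafilm, through which a mixed population of green peach aphids fed. Mortality was scored after 5 days as % efficacy, with 100% meaning all aphids killed.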

Aphis gossypii = Aphis gossypii spray test (APHIGO), cotton plants; details: Aphis gossypii, 144 h, 4 ppm, 6 dat, read-out: % efficacy
How it was run: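 Cotton plants (Gossypium hirsutum) heavily infested with cotton aphids were sprayed with the active ingredient formulated in emulsifier-containing water (1000 ppm emulsifier), with ammonium salt or penetrant added at 1000 ppm where required. After the set time, percent kill was determined, where 100% means all aphids dead.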

Phaedon cochleariae = Phaedon cochleariae spray test (PHAECO S), cabbage leaves; details: Phaedon cochleariae, 168 h, 7 dat, read-out: % efficacy
Experimental: [table] To produce an appropriate active ingredient formulation, 1 part by weight of active ingredient is dissolved with the specified parts by weight of solvent and made up with water containing an emulsifier concentration of 1000 ppm until the desired concentration is attained. To produce further test concentrations, the mixture is diluted with emulsifier-containing water. If addition of ammonium salts or/and penetrants is required, these are each added to the preparation solution in a concentration of 1000 ppm. Cabbage leaves (Brassica oleracea) are sprayed with an active ingredient formulation of the desired concentration and populated with larvae of the mustard beetle (Phaedon cochleariae). After the desired time, the kill in % is determined. 100% means that all beetle larvae have been killed; 0% means that no beetle larvae have been killed.

Diabrotica balteata = Diabrotica balteata drench test (DIABBA); details: soil, 192 h, 8 dat, read-out: % efficacy
Experimental: [table] To produce an appropriate active ingredient formulation, 1 part by weight of active ingredient is mixed with the specified amounts of solvent and emulsifier and the concentrate is diluted to the desired concentration with water, it being necessary to take into account the volume of soil into which drenching is effected. It should be ensured that a concentration of 40 ppm of emulsifier in the soil is not exceeded. For production of further test concentrations, the mixture is diluted with water. 5 maize kernels in each case are sown into soil-filled pots (Zea mays) and, the next day, drenched with the active ingredient formulation of the desired concentration. After one day, about 25 L2 larvae of the banded cucumber beetle (Diabrotica balteata) were added. After 8 days, the efficacy in % is determined. 100% means that all 5 plants have germinated and grown; 0% means that no plant has emerged.

Musca domestica = Musca domestica test; details: 100 ppm, adult houseflies, after 2 days
Experimental: Solvent: dimethyl sulfoxide To produce a suitable active ingredient formulation, 10 mg of active ingredient are mixed with 0.5 ml of dimethyl sulfoxide, and the concentrate is diluted with water to the desired concentration. Vessels containing a sponge treated with sugar solution and the active ingredient formulation of the desired concentration are populated with 10 adult houseflies (Musca domestica). After 2 days, the kill in % is determined. 100% means that all of the flies have been killed; 0% means that none of the flies have been killed.

Nilaparvata lugens = Nilaparvata lugens spray test (NILALU); details: Nilaparvata lugens, 96 h, 4 g/ha, 4 dat, read-out: % efficacy
How it was run: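 Rice plants (Oryza sativa) sprayed with compound formulated in solvent and water with 1000 ppm emulsifier, ammonium salts/penetrants at 1000 ppm if needed, then infested with brown planthopper larvae. After the set time, efficacy scored as % planthoppers killed (100% all, 0% none).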

Spodoptera frugiperda = Spodoptera frugiperda spray test; details: 100 g/ha, after 6 days
Experimental: [table] To produce a suitable active ingredient formulation, 1 part by weight of active ingredient is dissolved with the specified parts by weight of solvent and made up to the desired concentration with water containing an emulsifier concentration of 1000 ppm. To produce further test concentrations, the formulation is diluted with emulsifier-containing water. Leaf discs of maize (Zea mays) are sprayed with an active ingredient formulation of the desired concentration and, after drying, populated with caterpillars of the armyworm (Spodoptera frugiperda). After 6 days, the efficacy in % is determined. 100% means that all the caterpillars have been killed; 0% means that no caterpillar has been killed.

Structure (SMILES) | pest or weed control at 20 ppm (Meloidogyne incognita) [%] | pest or weed control at 0.8 ppm (Myzus persicae) [%] | Emax at 4 ppm (Aphis gossypii) [%] | Emax at 4 ppm (Phaedon cochleariae; 4 ppm) [%] | Emax at 20 ppm (Phaedon cochleariae) [%] | Emax at 20 ppm (Diabrotica balteata) [%] | efficacy (kill) (Musca domestica) [%] | Emax at 4 g/ha (Nilaparvata lugens) [%] | efficacy (Spodoptera frugiperda) [%]
CCS(=O)(=O)c1ccc(NC(=O)NC)nc1-c1nc2cc(C(F)(F)C(F)(F)F)nnc2n1C [Example I-08, 1-{5-(ethylsulfonyl)-6-[7-methyl-3-(pentafluoroethyl)-7H-imidazo[4,5-c]pyridazin-6-yl]pyridin-2-yl}-3-methylurea] | 100 | 90 | 95 | 70 | 90 | 100 |  |  | 
CCS(=O)(=O)c1ccc(N(C)C(=O)NC)nc1-c1nc2cc(C(F)(F)C(F)(F)F)nnc2n1C [Example I-09] | 100 | 90 |  |  |  |  |  |  | 
CCS(=O)(=O)c1ccc(NC(=O)N(C)C)nc1-c1nc2cc(C(F)(F)C(F)(F)F)nnc2n1C [Example I-10] | 100 | 100 | 75 |  | 80 |  | 90 | 90 | 
CCNC(=O)Nc1ccc(S(=O)(=O)CC)c(-c2nc3cc(C(F)(F)C(F)(F)F)nnc3n2C)n1 [Example I-13] | 100 | 100 |  |  |  |  | 80 |  | 83
